Molecular target: T1, Human ALDH3A1 (Homo sapiens, UniProt P30838)
T1 sequence (P30838 1-453): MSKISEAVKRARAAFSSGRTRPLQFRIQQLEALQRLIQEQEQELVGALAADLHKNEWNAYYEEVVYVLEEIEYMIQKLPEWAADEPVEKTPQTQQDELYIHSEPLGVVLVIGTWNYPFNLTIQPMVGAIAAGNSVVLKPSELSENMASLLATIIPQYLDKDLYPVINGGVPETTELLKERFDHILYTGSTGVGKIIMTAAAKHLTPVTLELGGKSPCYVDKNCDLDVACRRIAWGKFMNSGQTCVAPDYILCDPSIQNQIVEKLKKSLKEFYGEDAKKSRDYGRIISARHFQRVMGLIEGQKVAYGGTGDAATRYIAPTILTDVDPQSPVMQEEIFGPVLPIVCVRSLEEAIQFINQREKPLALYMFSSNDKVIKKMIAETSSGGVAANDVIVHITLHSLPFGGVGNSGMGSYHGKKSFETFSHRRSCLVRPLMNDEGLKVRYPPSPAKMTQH
Assay: ALDH3A1 biochemical assay (benzaldehyde/NADP+, diaphorase-resazurin readout, 1,536-well)
Conditions: for CC-v2: curve class

Structure (SMILES) | AC50 | Efficacy (Table S1, primary screen) | CC-v2 (Table S1, primary screen) | Efficacy (Table S2, in-house analogs) | CC-v2 (Table S2, in-house analogs)
COCCNC(=O)c1ccc2c(c1)N(C)C(CC(=O)NCC(C)C)CO2 (stereo not drawn) [NCGC00429361-01] | 28.2 µM | -36.95 | -3 |  | 
Cc1ccc2[nH]c(CO[C@H]3CN(C4CCOCC4)C[C@H]3F)nc2c1 [NCGC00392993-01] | 0.32 µM |  |  | -23.33 | -1.4
Cc1nn(-c2ccc(C(F)(F)F)cc2)c(C)c1[C@@H]1C=C[C@@H](NCc2ccc(N(C)C)cc2)C1 [NCGC00392637-01] | 12.6 µM |  |  | -37.26 | -2.2
COC(=O)c1ccc2nc(CO[C@H]3CN(Cc4ccc(C(F)(F)F)cc4)C[C@H]3F)[nH]c2c1 [NCGC00392986-01] | 28.2 µM |  |  | -62.94 | -2.2
COc1ccc(CCN2Cc3cc(NC(=O)Cc4cccs4)ccc3OCC2=O)cc1 [NCGC00475032-01] | 15.8 µM | -43.09 | -2.4 |  | 
O=C(NCc1nc(-c2ccccc2)no1)C1CCN(c2cc(-n3cncn3)ncn2)CC1 [NCGC00526793-01] | 35.5 µM | -44.11 | -2.2 |  | 
Cc1cc(OC2CN(C(=O)c3cc(-c4ccc(F)cc4)n[nH]3)C2)n2ncnc2n1 [NCGC00531207-01] | 14.1 µM | -93.27 | -2.3 |  | 
CNC(=O)c1cccc(-c2cnc3[nH]cc(CC(=O)Nc4ccccc4C)c3c2)c1 [NCGC00412345-01] | 5.62 µM |  |  | -73.33 | -2.4
COC(=O)c1ccc2nc(CO[C@H]3CN(C4CCOCC4)C[C@H]3F)[nH]c2c1 [NCGC00392980-01] | 0.18 µM |  |  | -21.56 | -1.4
Cc1nn(-c2ccc(C(C)C)cc2)c(C)c1[C@@H]1C=C[C@@H](NCc2ccc(F)cc2)C1 [NCGC00401594-01] | 12.6 µM |  |  | -91.30 | -2.2
O=C(NCc1cccc(F)c1)c1csc(N2CCN(c3ccc(Cl)cc3)CC2)n1 [Compound 1] | 0.71 µM |  |  | -61.67 | -1.2
CC1(COCC2CC2)COc2ccc(C(=O)Nc3cccc([S+](C)(=O)[O-])c3)cc2N1 (stereo not drawn) [NCGC00416184-01] | 35.5 µM | -42.40 | -2.4 |  | 
COc1ccc(N2CCN(c3nc(C(=O)NCc4ccc(F)cc4F)cs3)CC2)cc1 [NCGC00430664-01] | 4.47 µM |  |  | -32.83 | -1.4
CNCc1cn(C[C@H]2O[C@@H](CC(=O)NCc3ccc(F)cc3)[C@H](O)[C@@H]2O)nn1 [NCGC00400077-01] | 39.8 µM | -39.06 | -2.2 |  | 
Cc1nn(Cc2ccccc2)c(C)c1[C@@H]1C=C[C@@H](NC(=O)c2ccco2)C1 [NCGC00397524-03] | 3.16 µM |  |  | -51.19 | -1.2
COc1cccc(CNC(=O)CCNc2cnc3cnccn23)c1 [NCGC00433986-01] | 14.1 µM | -81.82 | -2.2 |  | 
COc1cccc(N2CCN(c3nc(C(=O)NCc4ccncc4)cs3)CC2)c1 [NCGC00430686-01] | 12.6 µM |  |  | -75.42 | -2.2
COc1ccc(CNc2cc3c(cn2)CN(Cc2ccccc2)CCN3)cc1OC [NCGC00411020-01] | 14.1 µM | -49.01 | -2.2 |  | 
CC(=O)Nc1cccc(-c2cc(C(=O)NCc3cnn(C)c3)c3c(c2)N(C)CCO3)c1 [NCGC00417085-01] | 28.2 µM |  |  | -77.64 | -2.2
CN1CCOc2c(C(=O)NCCC(N)=O)cc(-c3ccccc3O)cc21 [NCGC00417061-01] | 0.63 µM |  |  | -48.22 | -1.2
Cc1c(-c2cc(C(=O)NCc3cccnc3)c3c(c2)N(C)CCO3)cnn1C [NCGC00417124-01] | 2.82 µM |  |  | -61.06 | -2.2
O=C(NCc1ccccc1Cl)c1csc(N2CCN(c3ccc(F)cc3)CC2)n1 [NCGC00430734-01] | 1.78 µM |  |  | -71.11 | -1.2
Cc1nn(-c2ccc(C(C)C)cc2)c(C)c1[C@@H]1C=C[C@@H](NCc2cccc(C#N)c2)C1 [NCGC00421409-01] | 10 µM |  |  | -39.09 | -1.2
CC(=O)Nc1ccc(CN2CC(Oc3ccc4c(c3)OCO4)C2)cc1 [NCGC00373680-01] | 7.94 µM | -29.03 | -1.4 |  | 

Continued, values first:

AC50 | Efficacy (Table S1, primary screen) | CC-v2 (Table S1, primary screen) | Efficacy (Table S2, in-house analogs) | CC-v2 (Table S2, in-house analogs) | Structure (SMILES)
5.62 µM | -41.70 | -2.4 |  |  | O=C(Nc1ccc2c(c1)OCCO2)N1CCC(Cc2nnc(-c3ccncc3)[nH]2)C1 (stereo not drawn) [NCGC00438506-01]
15.8 µM |  |  | -42.05 | -2.4 | O=C(NC1CCCC1)c1csc(N2CCN(c3cccc(Cl)c3)CC2)n1 [NCGC00430704-01]
15.8 µM | -25.02 | -2.4 |  |  | O=C(CCc1cc2n(n1)CCCNC2)Nc1ccc2c(c1)OCCO2 [NCGC00441819-01]
28.2 µM |  |  | -37.07 | -2.4 | O=C(NCC1CC1)c1csc(N2CCN(c3ccccc3F)CC2)n1 [NCGC00430728-01]
39.8 µM | -51.44 | -3 |  |  | COc1cccc(CN2CC(Oc3ccccc3C(=O)NC3CC3)C2)c1 [NCGC00458073-01]
28.2 µM | -57.51 | -2.2 |  |  | CCn1nc(C)c(CNC(=O)c2cc(COc3ccc4ncccc4c3)on2)c1C [NCGC00426725-01]
3.98 µM |  |  | -57.20 | -1.2 | COc1ccc(N2CCN(c3nc(C(=O)NCc4ccc(C)cc4)cs3)CC2)cc1 [NCGC00430668-01]
31.6 µM | -48.80 | -2.2 |  |  | CCCNC(=O)N1CC(Oc2ccc(-c3nc(C)no3)cc2)C1 [NCGC00441061-01]
2.82 µM |  |  | -45.69 | -1.2 | COc1cccc(N2CCN(c3nc(C(=O)NCc4ccccc4F)cs3)CC2)c1 [NCGC00430688-01]
0.11 µM |  |  | -32.51 | -1.2 | COc1ccc(N2CCN(c3nc(C(=O)NC4CC4)cs3)CC2)cc1 [NCGC00430672-01]
10 µM | -21.09 | -1.4 |  |  | O=C(NCc1ccc(Cl)cc1)c1cc2n(n1)CC(c1ccc3c(c1)OCO3)OC2 (stereo not drawn) [NCGC00450299-01]
0.45 µM |  |  | -92.90 | -1.1 | Fc1ccc2[nH]c(CO[C@H]3CN(Cc4ccc5ccccc5n4)C[C@H]3F)nc2c1 [NCGC00393065-01]
22.4 µM |  |  | -83.17 | -2.2 | Cc1nn(Cc2ccccc2)c(C)c1[C@@H]1C=C[C@@H](NC(=O)Nc2ccccc2)C1 [NCGC00400191-01]
20 µM |  |  | -27.04 | -2.4 | COc1cc(F)ccc1-c1cc(C(=O)NCCC(N)=O)c2c(c1)N(C)CCO2 [NCGC00417040-01]
0.32 µM |  |  | -32.94 | -1.2 | COC(=O)c1ccc2nc(CO[C@H]3CN(C(C)=O)C[C@H]3F)[nH]c2c1 [NCGC00392964-01]
2.51 µM | -29.34 | -1.4 |  |  | CCOc1ccc(C(=O)NC2CCN(c3cc(-c4ccc(OC)cc4)n[nH]3)C2)cc1OCC (stereo not drawn) [NCGC00438182-01]
2.51 µM |  |  | -72.54 | -1.2 | COc1cccc(N2CCN(c3nc(C(=O)NCc4cccc(C)c4)cs3)CC2)c1 [Compound 2]
14.1 µM | -63.09 | -2.2 |  |  | COc1ccc(NC(=O)N[C@H]2C[C@@H](C(=O)N[C@@H](Cc3cccs3)C(N)=O)N(C(=O)CSC)C2)cc1 [NCGC00398253-01]
20 µM | -66.49 | -3 |  |  | C[S+](=O)([O-])c1ccc(N2CCN(CC3(O)CNCCOC3)CC2)c(F)c1 (stereo not drawn) [NCGC00435271-01]
15.8 µM |  |  | -39.10 | -2.2 | Cc1cc(CNC(=O)c2cc(-c3cnn(C)c3)cc3c2OCCN3C)no1 [NCGC00417081-01]
28.2 µM | -30.64 | -2.4 |  |  | COc1cccc(NC(=O)O[C@@H]2CO[C@H]3[C@@H]2OC[C@@H]3Nc2nccc(-c3ccccc3)n2)c1 [NCGC00398388-01]
17.8 µM |  |  | -40.76 | -2.2 | CN1CCOc2c(C(=O)NCCC(N)=O)cc(-c3ccc(CO)cc3)cc21 [NCGC00417044-01]
0.79 µM |  |  | -109.85 | -1.1 | COC(=O)c1ccc2nc(CO[C@H]3CN(Cc4ccc5ccccc5n4)C[C@H]3F)[nH]c2c1 [NCGC00391159-01]
14.1 µM |  |  | -93.02 | -1.1 | COc1ccc(NC(=O)N[C@@H]2C=C[C@@H](c3c(C)nn(CCC#N)c3C)C2)cc1 [NCGC00399960-01]
15.8 µM | -45.94 | -2.2 |  |  | COc1cccc(CN2CC(C(=O)NCc3cc4ccccc4[nH]3)CCC2=O)c1 (stereo not drawn) [NCGC00449252-01]
28.2 µM |  |  | -105.83 | -2.1 | COc1ccc(-n2nc(C)c([C@@H]3C=C[C@@H](NCc4ccc(N(C)C)cc4)C3)c2C)cc1 [NCGC00394616-01]

Reference: publication PMC13266984 (Journal of medicinal chemistry, 2026)
